# Key:
# [1] = Particle size distribution by laser diffraction (Mastersizer 2000); format: physicochemical
# Protocol: In the invention, Dpn is a unit referring to a particle size of crystal, and n is a value covering from 1 to 100. For example, Dp10 is defined as a diameter of the particle where particles are accumulated from the one having a smaller size and reach to the accumulated particle volume of 10%.
# Add 1000 mL of water to 5 g of Triton X-100, mix well. Add 0.1 g of bicalutamide and sonicate for 15 minutes, the filter using 0.45 μm membrane filter and use this solution as the dispersant. Rinse the dispersion unit and the measurement instrument with the dispersant and replace it in the instruments with the fresh one, then measure background. After weighing, suspend about 0.05 g of bicalutamide crystals in the 20 ml of dispersant and sonicate for 5 minutes, and make up with the dispersant to 100 mL. Redisperse this suspension with a pipet and pour this sample into the dispersion unit so that an obscuration is 10.0 to 20.0%. After the stabilizing period of 12 minutes, start the measurement under the following condition. Determine 10% diameter, 50% diameter, and 90% diameter according to an integrated distribution curve to be Dp10, Dp50 and Dp90, respectively.
# • Instrument model: Laser diffraction particle size analyzer Mastersizer 2000 (Malvern) • Dispersion unit: Hydro2000S • Stirrer speed of dispersion unit: 2300 rpm • Particle Refraction Index of sample: 1.670 Absorption: 0.001 • Dispersant Refraction Index: 1.330 • Analysis model: General purpose • Calculation sensitivity: Enhanced • Particle shape: Irregular • Size range: 0.020-2000.000 μm • Measurement integration period: 12 seconds • Backgroupd integration period: 12 seconds (Specific Surface Area)
# With using the above-mentioned laser diffraction particle size distribution analyzer (Mastersizer 2000 (Malvern)), a particle size distribution was measured under the same conditions mentioned above.
# [2] = Specific surface area by nitrogen gas absorption (BET equation, COULTER SA3100); format: physicochemical
# Protocol: The specific surface area in the invention is defined as a surface area per 1 g of particles, and represented by a value measured by the following method.
# A sample is deaerated overnight in a vacuum dryer at 40° C. as a pre-treatment before being subjected to a measurement. The measurement is conducted as follows: a given amount of an absorbing gas (nitrogen gas) is absorbed by a sample, the values of a relative pressure (P/PO) and an absorbed gas volume are determined in each absorption step, and then a specific surface area is calculated according to the BET equation using the values. COULTER™ SA3100™ Series Surface Area and Pore size Analyzer is used as a measurement device. After measuring the sample mentioned above, the specific surface area at around the relative pressure of 0.05 to 0.2 is calculated.
# Furthermore, the specific surface area of the crystals obtained by one time milling was measured with the COULTER™ SA3100™ Series Surface Area and Pore size Analyzer mentioned above under the same conditions mentioned above.
# [3] = crystals as obtained by crystallization, not milled
# [4] = crystals obtained by two times milling (CT-401 ATOMIZER)
# [5] = crystals obtained by one time milling (spiral jet-mill 50AS)
"Dp10 (particle size) [1, 3]","Dp50 (particle size) [1, 3]","Dp90 (particle size) [1, 3]","Dp10 (particle size) [1, 4]","Dp50 (particle size) [1, 4]","Dp90 (particle size) [1, 4]","specific surface area [2, 3]","specific surface area ([2]; crystals obtained by one time milling, relative pressure 0.05 to 0.2)","Dp10 (particle size) [1, 5]","Dp50 (particle size) [1, 5]","Dp90 (particle size) [1, 5]",Compound
45.6 μm,90.7 μm,177.6 μm,3.1 μm,15.9 μm,57.8 μm,,,,,,"CC(O)(CS(=O)(=O)c1ccc(F)cc1)C(=O)Nc1ccc(C#N)c(C(F)(F)F)c1 (centres unmarked) [Comparative Example 1, bicalutamide]"
39.5 μm,119.6 μm,273.1 μm,,,,0.2 m^2/g,,,,,"CC(O)(CS(=O)(=O)c1ccc(F)cc1)C(=O)Nc1ccc(C#N)c(C(F)(F)F)c1 (centres unmarked) [Comparative Example 2, bicalutamide]"
5.3 μm,14.5 μm,30.6 μm,,,,,1.8 m^2/g,1.8 μm,4.2 μm,10.5 μm,"CC(O)(CS(=O)(=O)c1ccc(F)cc1)C(=O)Nc1ccc(C#N)c(C(F)(F)F)c1 (centres unmarked) [Example 1, bicalutamide]"
45.6 μm,90.7 μm,177.6 μm,,,,,,,,,CC(O)(CS(=O)(=O)c1ccc(F)cc1)C(=O)Nc1ccc(C#N)c(C(F)(F)F)c1 (centres unmarked) [bicalutamide]
